# Reference: PMC12458685, “Thwarting Isomerization through Rigidity: A Promising HBED Derivative for the Chelation of Gallium-68” (Inorganic Chemistry, 2025)
# Where two headings read alike, the source gives them in different places.
# Assays:
# [1] = Thermodynamic stability of Ga^3+-HBCD (UV–vis and 1H NMR in-batch titrations; pGa^3+ calculation); format: physicochemical; details: for pGa^3+ (−log[Ga^3+]free): calculated at pH 7.4, C L = 10 μM and C Ga = 1 μM
# Protocol: The thermodynamic stability of Ga^3+-HBCD was evaluated by UV–vis and ^1H NMR spectroscopies. Due to the slow complexation kinetics observed at highly acidic pH values, in-batch titrations were conducted, and heating was applied to speed up the attainment of equilibrium under these conditions. Representative pH-dependent ^1H NMR and UV–vis spectra are reported in Figures S12 and S13, respectively. The overall stability constants (log β) of Ga^3+-HBCD are provided in Table while the corresponding distribution diagram is shown in Figure in comparison with HBED.
# To compare the chelating abilities of HBCD and HBED, the pGa^3+ values (pGa^3+ = −log[Ga^3+]free) were calculated under physiological conditions (pH = 7.4, C L = 10 μM and C Ga = 1 μM). This parameter accounts for both ligand basicity and metal-ion hydrolysis, with higher pGa^3+ values indicating greater complex stability under the given conditions.
# (§1) UV–vis pH-spectrophotometric titrations were conducted using the in-cell method for the free HBCD and the out-of-cell method for the Ga^3+-HBCD mixture at T = 25 °C and I = 0.15 M NaCl. In the latter case, stock solutions of HBCD and Ga^3+ were combined in separate vials at 1:1 metal-to-ligand ratio (C Ga = C L = 20–50 μM). Small volumes (μL) of HCl and/or NaOH were used to adjust the pH. pH measurements were performed using a calibrated pH meter (Mettler-Toledo). The vials were sealed and heated to T = 80 °C to ensure complete complexation, then cooled to ambient temperature. The electronic spectra were recorded, and the equilibrium was considered to be reached when no further changes in either the pH or the electronic spectra were observed.
# (§2) ^1H NMR spectra of free HBCD or Ga^3+-HBCD mixtures (C L = C Ga = 1 mM) were recorded at T = 25 °C and I = 0.15 M NaCl, in D2O, at different pH. The pH was adjusted following the procedure used in the UV–vis experiments. To account for isotopic effects, 0.41 log units were added to the measured pH values. Under highly acidic conditions, the pH was calculated from the HCl concentration using the formula pH = −log[C(H^+)]. […] Prolonged heating was applied to accelerate the complexation reaction. The thermodynamic data were elaborated with HypSpec, HypNMR or as described in previous publications. , Hydrolysis constants and solubility products of Ga^3+ in aqueous ionic media were taken from ref .
# [2] = parameters: method as in number not given; details: ref number not given, cited from earlier work; for pGa^3+: under the same conditions (pH 7.4, C L = 10 μM, C Ga = 1 μM)
# [3] = parameters: method as in number not given; details: I = 0.10 M KCl, T = 25 °C; literature data, ref number not given; cited from earlier work
# [4] = parameters: method as in number not given; details: for in vivo imaging; ref number not given; cited from earlier work
# [5] = Acidity constants of HBCD by pH-dependent 1H NMR titration; format: physicochemical; details: T = 25 °C, I = 0.15 M NaCl
# Text: The assignment of the other four protonation constants (pK a,3, pK a,4, pK a,5 and pK a,6) is extremely challenging. […] According to NMR data of HBCD, pK a,3 can reasonably be assigned to one of the tertiary ammine. Once this dissociation occurs, the nitrogen atom can form a hydrogen bond with the phenolic group or with the other amine group. The next dissociation (pK a,4) can be attributed to the other phenolic moiety that can be then involved in the formation of the hydrogen bond with the protonated ammine. The last two dissociations can tentatively be attributed to the second phenolic group (pK a,5) and the tertiary amine (pK a,6).
# as §2
# [6] = Acidity constants of HBCD by UV–vis pH-spectrophotometric titration; format: physicochemical; details: T = 25 °C, I = 0.15 M NaCl
# Protocol: As the pH increases, the intensity of the band at 275 nm decreases, while two new bands emerge at 241 and 298 nm, with their absorbance progressively increasing. […] These pH-dependent changes in the electronic spectra allowed the determination of the acidity constants (pK a) of HBCD, which are summarized in Table .
# as §1
# [7] = Stability of HBCD aqueous stock solution (NMR, ESI-MS, UV–vis); format: physicochemical; details: room temperature, up to one month
# Protocol: HBCD stock solutions were prepared by dissolving a weighed amount of ligand directly in Milli-Q water to achieve a concentration of approximately 1 mM. The solubility of HBCD in water depends on pH: minimal values occur at acidic pH, where the noncharged form predominates. To enhance solubility, small amount of NaOH were added, and the solution was sonicated for 15 min. The stability of HBCD at room temperature was confirmed by NMR, ESI-MS and UV–vis measurements conducted over the course of up to one month following solution preparation.
# [8] = Formation kinetics of Ga^3+-HBCD (1H NMR and UV–vis); format: physicochemical
# Protocol: Before the thermodynamic investigation, the formation kinetics of the Ga^3+-HBCD complexes were qualitatively assessed using ^1H NMR and UV–vis spectroscopies at different pH and concentrations to determine the time needed to reach equilibrium. Understanding the equilibration conditions is essential for obtaining accurate thermodynamic data and for gaining an initial insight into the binding capacity of the new chelator.
# The formation kinetics of the Ga^3+-HBCD complexes was evaluated at room temperature using ^1H NMR and UV–vis spectroscopies. Equimolar amounts of Ga^3+ and HBCD solutions (final concentrations: 1 mM for ^1H NMR, 50 μM for UV–vis) in buffered media (e.g., pH 2 HCl 10^–2 M, pH 4.5 acetic/acetate buffer). The complexation reaction was tracked by monitoring the increase in peaks characteristic of Ga^3+-ligand complex formation over time.
compound,measurement,setting,value
"O=C(O)CN(CCN(CC(=O)O)Cc1ccccc1O)Cc1ccccc1O [HBED, N,N′-di(2-hydroxybenzyl)ethylenediamine-N,N′-diacetic acid]",pGa^3+ (−log[Ga^3+]free),[1],29.6
same,"log β, Ga^3+ + H^+ + L^4– ⇌ [GaHL]",[2]; literature data,40.81
same,"log β, Ga^3+ + L^4– ⇌ [GaL]^−",[2]; literature data,38.51
same,"pK a,2 (H5L^+ ⇌ H^+ + H4L)",[3],2.24
same,"pK a,3 (H4L ⇌ H^+ + H3L^–)",[3],4.40
same,"pK a,4 (H3L^– ⇌ H^+ + H2L^2–)",[3],8.34
same,"pK a,5 (H2L^2– ⇌ H^+ + HL^3–)",[3],11.03
same,"pK a,6 (HL^3– ⇌ H^+ + L^4–)",[3],12.64
"O=C(O)CN1CCN(CC(=O)O)CCN(CC(=O)O)CCN(CC(=O)O)CC1 [DOTA, 1,4,7,10-tetraazacyclododecane-1,4,7,10-tetraacetic acid]",pGa^3+,[2],18.5
"transferrin: iron-transporting protein, one of the primary in vivo competitors for Ga^3+",pGa^3+,[2],20.3
O=C(O)CN(Cc1cccc(C(=O)O)n1)Cc1cccc(C(=O)O)n1 [dpaa],serum stability of the [^68Ga]Ga^3+ complex,[4],poor
"O=C(O)CN(Cc1ccccc1O)[C@@H]1CCCC[C@H]1N(CC(=O)O)Cc1ccccc1O [HBCD, N,N′-di(2-hydroxybenzyl)-(1,2-cyclohexanediamine)-N,N′-diacetic acid]","pK a,1 (H6L^2+ ⇌ H^+ + H5L^+)",[5],1.1 ± 0.2
same,"pK a,2 (H5L^+ ⇌ H^+ + H4L)",[5],3.1 ± 0.3
same,"pK a,3 (H4L ⇌ H^+ + H3L^–)",[5],4.9 ± 0.4
same,"pK a,4 (H3L^– ⇌ H^+ + H2L^2–)",[5],9.7 ± 0.3
same,"pK a,5 (H2L^2– ⇌ H^+ + HL^3–)",[5],12.2 ± 0.1
same,"pK a,6 (HL^3– ⇌ H^+ + L^4–)",[5],13.5 ± 0.2
same,"pK a,3 (H4L ⇌ H^+ + H3L^–)",[6]; UV–vis,5.20 ± 0.06
same,"pK a,4 (H3L^– ⇌ H^+ + H2L^2–)",[6]; UV–vis,9.42 ± 0.04
same,"pK a,5 (H2L^2– ⇌ H^+ + HL^3–)",[6]; UV–vis,11.94 ± 0.03
same,"pK a,6 (HL^3– ⇌ H^+ + L^4–)",[6]; UV–vis,13.2 ± 0.2
same,"average value of pK a,1 and pK a,2",[6]; calculated from UV–vis data,"d An average value of pK a,1 and pK a,2 equal to 1.7 ± 0.2 was calculated from UV–vis data."
same,"log β, Ga^3+ + H^+ + L^4– ⇌ [GaHL]","[1]; T = 25 °C, I = 0.15 M NaCl",41.2 ± 0.1
same,"log β, Ga^3+ + L^4– ⇌ [GaL]^−","[1]; T = 25 °C, I = 0.15 M NaCl",39.2 ± 0.1
same,pGa^3+ (−log[Ga^3+]free),[1],27.0
same,stability of HBCD in solution,[7],confirmed
same,Ga^3+ complex formation,"[8]; pH ∼ 2, room temperature, after 24 h, 1H NMR",no complex formation was observed
same,time to reach completion of Ga^3+ complexation,"[8]; pH ∼ 4.5, 50 μM, UV–vis",approximately 1 h
same,Ga^3+ complexation rate,"[8]; pH ∼ 4.5, mM metal and ligand concentrations, 1H NMR",nearly instantaneous
